Test system: mitochondria or chloroplast of Chlamydomonas reinhardtii
Experiment: Subcellular localization of Venus reporter by epifluorescence microscopy (manual targeting assignment)
Format: cell-based
Conditions: C-terminal element of RCA1-cTP added to the named peptide; Figure 2 rows E and F; bare name = K and R versions
Text: In a bid to keep peptidase recognition sites intact, C-terminal elements were designed to start 10 residues upstream of the cleavage site, even though this slightly truncates TP helices. Peptides carrying the 15-amino-acid cTP N-terminus (cTP-N) will be denoted ^cP. Similarly, peptides with C-terminal elements from RCA1-cTP (cTP-C) or CAG2-mTP (mTP-C) will be denoted P^c or P^m, respectively. Peptide variants are used to drive the subcellular localization of a Venus fluorescent reporter protein, which was assessed using fluorescence microscopy; in Figure 2, an executive overview of observed Venus localization is presented for all constructs. […] Here, we use automated image segmentation to validate our subcellular localization assessment (Supplemental Figure 2, Supplemental text). […] The reader will be asked to return to Figure 2 throughout, with Figures 3 and 4 providing selected micrographs as examples highlighting particular points of interest.
Chlamydomonas TP sequences were amplified from genomic DNA extracted from strain T222+ (CC-5101). Templates for codon-optimized HA-RAMP, RP, and R→K modified TP sequences were obtained by gene synthesis (Eurofins Genomics). Correct assembly was verified by sequencing (Eurofins Genomics). Linear transformation cassettes were generated through restriction digestion with EcoRV (New England Biolabs).
Constructs were transformed into wild-type strain T222+ (CC-5101) using a protocol described previously ([Onishi and Pringle, 2016]), except using 4 μl of DNA at 2 μg/μl.
Strains with suspected mitochondrial targeting were treated with 0.1 μM MitoTracker Red CMXRos (Thermo Fisher Scientific) in growth medium for 30 min in the dark and washed with TAP prior to taking images.
Legend for Fig. S3 – S20. Three independent transformant lines (Strains 1-3) are shown for each combination of modifications (A-L), represented by a cartoon and a shorthand description (cf. Fig.
2). Where a construct was interpreted as generating reporter localization in mitochondria or […]
Epifluorescence microscopy images of typical cells for each strain are shown. MitoTracker fluorescence, false-coloured in cyan, indicates the position of mitochondria (although parts of the cell exterior are sometimes also stained). False-coloured yellow fluorescence from the Venus channel reports on the subcellular localization of the fluorescent reporter. Chlorophyll autofluorescence, shown in magenta, indicates the location of the chloroplast. Scale bars are 5µm. Brightness (Br.) was adjusted for clarity: fluorescence intensity values were restricted to the range shown for each channel by matching coloured rectangles. Intensity scales to 0 at the bottom of the panel, and to 65535 at the top.
On the right-hand side, quantitative information associated with each construct is shown. Data was normalized such that averages range from 0 to 1 across all constructs (cf. Fig S2). Individual cell measurements may exceed this range; for clarity, the range shown here is limited to -0.5 to 1.5, with outliers that have more extreme values shown as lying beyond a dashed line. Strain 1 is plotted as circles, strain 2 as squares, and strain 3 as diamonds. Venus: Fluorescence plate reader data of transformants screened for this construct (Venus fluorescence, accounting for cell density using linear regression of OD750 and chlorophyll fluorescence trained on ‘no venus’ control transformants). Transformants that were not selected after screening are shown as small grey circles. A colour code ranging from white (low Venus fluorescence) to black (high Venus fluorescence) is used for strains 1-3 and the average thereof. Automated image quantification data: pyr/chl: Venus channel signal in the pyrenoid relative to in the chlorophyll region; mt/cell: Venus channel signal in mitochondria relative to the whole cell. Each point corresponds to a single cell.
The colour code code is the same as that below distributions in Fig. S2, i.e. blue highlights the […]

Row | Sequence | chloroplast targeting upon addition of cTP-C (P^c)
1 | KYYGNGVHCTKSGCSVNWGEAFSAGVHRLANGGNGFW [LCA, leucocin A, HA-RAMP antimicrobial peptide, reference compound] | enabled chloroplast targeting

Same assay, conditions: C-terminal element of RCA1-cTP added to the named peptide; Figure 2 rows E and F; bare name = K and R versions; listed as LCAK

Row | Sequence | chloroplast targeting upon addition of cTP-C (P^c)
2 | KYYGNGVHCTKSGCSVNWGEAFSAGVHRLANGGNGFW [LCA, leucocin A, HA-RAMP antimicrobial peptide, reference compound] | Gain of partial chloroplast targeting

Same assay, conditions: Figure 2; bare name = K and R versions

Row | Sequence | targeting when combining cTP-N with mTP-C (^cP^m)
3 | KYYGNGVHCTKSGCSVNWGEAFSAGVHRLANGGNGFW [LCA, leucocin A, HA-RAMP antimicrobial peptide, reference compound] | chloroplast targeting

Same assay, conditions: manual targeting assignment of the Venus reporter construct in Chlamydomonas: Neither / Mitochondria / Chloroplast / Dual, (partial) = partial targeting

Row | Sequence | Localisation
4 | MLKKVGQSLVPFAKAG [MH.K] | Neither
5 | MSFLTTFRDLAIRAARSAGQSVLSTLSCRLSNTCSVRRAQLQVVASSRKQMGRWRSIDAGVDASDDQ [B2I.R.c] | Mitochondria
6 | MQVTMKSSAVSGQRVMGLLLDTLRGAARDIAGIALERLRCRITGCRPLTQTAESFRGVSSQFFDAPNGPSVKQVLIEDEW [c.R2G.R.m] | Mitochondria
7 | MQVTMKSSAVSGQRVMLKRVGQSLVPFARAG [c.MH.R] | Neither
8 | MDEVNNDNCRIRFRGDISSESDRMNINY [RP2.R] | Neither
9 | MLTQTAESFRGVSSQFFDAPNGPSVKQVLIEDEW [-.m] | Neither
10 | MLKRVGQSLVPFARAGSVRRAQLQVVASSRKQMGRWRSIDAGVDASDDQ [MH.R.c] | Dual
11 | MSVRRAQLQVVASSRKQMGRWRSIDAGVDASDDQ [-.c] | Neither
12 | MQVTMKSSAVSGQRVSFLTTFRDLAIRAARSAGQSVLSTLSCRLSNTC [c.B2I.R] | Mitochondria (partial)
13 | MLKKVGQSLVPFAKAGSVRRAQLQVVASSRKQMGRWRSIDAGVDASDDQ [MH.K.c] | Dual
14 | MQVTMKSSAVSGQRVMGWIRDFGRRIERVGQHTRDATIQTIAVAQQAANVAATLRG [c.S1D.R] | Mitochondria
15 | MLKKVGQSLVPFAKAGLTQTAESFKGVSSQFFDAPNGPSVKQVLIEDEW [MH.K.m] | Neither
16 | MQVTMKSSAVSGQRVALWRTMLRRLGTMALHAGRAAFGAAADTISQLTQTAESFRGVSSQFFDAPNGPSVKQVLIEDEW [c.DDM.R.m] | Neither
17 | MQVTMKSSAVSGQRVMLKKVGQSLVPFAKAG [c.MH.K] | Neither
18 | MALWRTMLRRLGTMALHAGRAAFGAAADTISQSVRRAQLQVVASSRKQMGRWRSIDAGVDASDDQ [DDM.R.c] | Neither
19 | MQVTMKSSAVSGQRVMGLLLDTLRGAARDIAGIALERLRCRITGCRPSVRRAQLQVVASSRKQMGRWRSIDAGVDASDDQ [c.R2G.R.c] | Dual
20 | MQVTMKSSAVSGQRVGRIPVRAIRRAGAAIGRGLRAINIASTAHDVYSFFRPRHRRR [c.SIM.R] | Chloroplast
21 | MQVTMKSSAVSGQRVGGARVATR [c.CH.R] | Neither
22 | MDEVNNDNCRIRFRGDISSESDRMNINYLTQTAESFRGVSSQFFDAPNGPSVKQVLIEDEW [RP2.R.m] | Neither
23 | MQVTMKSSAVSGQRVGRIPVRAIRRAGAAIGRGLRAINIASTAHDVYSFFRPRHRRRLTQTAESFRGVSSQFFDAPNGPSVKQVLIEDEW [c.SIM.R.m] | Chloroplast

Same assay, conditions: peptide-Venus reporter construct expressed in Chlamydomonas reinhardtii; manual targeting assignment (Neither / Mitochondria / Chloroplast / Dual; partial = partial targeting)

Row | Sequence | Localisation
24 | MKYYGNGVHCTRSGCSVNWGEAFSAGVHRLANGGNGFWLTQTAESFRGVSSQFFDAPNGPSVKQVLIEDEW [LCA.R.m] | Neither
25 | MGIGRFLHSARRFGRAFVGEIMNSSVRRAQLQVVASSRKQMGRWRSIDAGVDASDDQ [MII.R.c] | Mitochondria
26 | MQVTMKSSAVSGQRVGIGRFLHSARRFGRAFVGEIMNS [c.MII.R] | Mitochondria
27 | MKYYGNGVHCTKSGCSVNWGEAFSAGVHRLANGGNGFW [LCA.K] | Neither
28 | MQVTMKSSAVSGQRVMKYYGNGVHCTKSGCSVNWGEAFSAGVHRLANGGNGFW [c.LCA.K] | Neither
29 | MQVTMKSSAVSGQRVMWLSRTARRLENSARRRISEGIAIAIRGGSRSVRRAQLQVVASSRKQMGRWRSIDAGVDASDDQ [c.CP3.R.c] | Chloroplast
30 | MQVTMKSSAVSGQRVMKYYGNGVHCTRSGCSVNWGEAFSAGVHRLANGGNGFWLTQTAESFRGVSSQFFDAPNGPSVKQVLIEDEW [c.LCA.R.m] | Neither
31 | MQVTMKSSAVSGQRVMWLSKTAKKLENSAKKRISEGIAIAIKGGSRSVRRAQLQVVASSRKQMGRWRSIDAGVDASDDQ [c.CP3.K.c] | Neither
32 | MVNYGNGVSCSRTRCSVNWGIITHQAFRVTSGVASG [B15.R] | Neither
33 | MQVTMKSSAVSGQRVMVNYGNGVSCSKTKCSVNWGIITHQAFRVTSGVASGLTQTAESFRGVSSQFFDAPNGPSVKQVLIEDEW [c.B15.K.m] | Chloroplast
34 | MVNYGNGVSCSKTKCSVNWGIITHQAFRVTSGVASGSVRRAQLQVVASSRKQMGRWRSIDAGVDASDDQ [B15.K.c] | Chloroplast
35 | MKYYGNGVHCTKSGCSVNWGEAFSAGVHRLANGGNGFWLTQTAESFRGVSSQFFDAPNGPSVKQVLIEDEW [LCA.K.m] | Neither
36 | MGLFSKFNKKKIKSGLIKIIKTAGKEAGLEALRTGIDVIGCKIKGEC [E1S.K] | Neither
37 | MKYYGNGVHCTRSGCSVNWGEAFSAGVHRLANGGNGFW [LCA.R] | Neither
38 | MQVTMKSSAVSGQRVMVNYGNGVSCSRTRCSVNWGIITHQAFRVTSGVASGLTQTAESFRGVSSQFFDAPNGPSVKQVLIEDEW [c.B15.R.m] | Chloroplast
39 | MQVTMKSSAVSGQRVMKYYGNGVHCTKSGCSVNWGEAFSAGVHRLANGGNGFWLTQTAESFRGVSSQFFDAPNGPSVKQVLIEDEW [c.LCA.K.m] | Chloroplast
40 | MQVTMKSSAVSGQRVGIGKFLHSAKKFGKAFVGEIMNSSVRRAQLQVVASSRKQMGRWRSIDAGVDASDDQ [c.MII.K.c] | Chloroplast
41 | MWLSKTAKKLENSAKKRISEGIAIAIKGGSRSVRRAQLQVVASSRKQMGRWRSIDAGVDASDDQ [CP3.K.c] | Neither
42 | MALWMTLLKKVLKAAAKAALNAVLVGANALTQTAESFRGVSSQFFDAPNGPSVKQVLIEDEW [DS4.K.m] | Neither

Same assay, conditions: targeting of the Venus reporter fused to the peptide, expressed in Chlamydomonas reinhardtii; manual assignment from epifluorescence microscopy; full or partial

Row | Sequence | Localisation
43 | MQVTMKSSAVSGQRVFLPLLAGLAANFLPRIFCRITRRCSVRRAQLQVVASSRKQMGRWRSIDAGVDASDDQ [c.B1E.R.c] | Chloroplast
44 | MQVTMKSSAVSGQRVSVRRAQLQVVASSRKQMGRWRSIDAGVDASDDQ [c.-.c] | Chloroplast (partial)
45 | MGLLLDTLKGAAKDIAGIALEKLKCKITGCKP [R2G.K] | Neither
46 | MQVTMKSSAVSGQRVFLPLLAGLAANFLPKIFCKITRKC [c.B1E.K] | Mitochondria
47 | MQVTMKSSAVSGQRVALWMTLLKKVLKAAAKAALNAVLVGANASVRRAQLQVVASSRKQMGRWRSIDAGVDASDDQ [c.DS4.K.c] | Neither
48 | MSFLTTFKDLAIKAAKSAGQSVLSTLSCKLSNTCSVRRAQLQVVASSRKQMGRWRSIDAGVDASDDQ [B2I.K.c] | Mitochondria
49 | MQVTMKSSAVSGQRVMALWKTMLKKLGTMALHAGKAAFGAAADTISQSVRRAQLQVVASSRKQMGRWRSIDAGVDASDDQ [c.DDM.K.c] | Chloroplast (partial)
50 | MQVTMKSSAVSGQRV [c.-] | Neither
51 | MQVTMKSSAVSGQRVMALWKTMLKKLGTMALHAGKAAFGAAADTISQLTQTAESFRGVSSQFFDAPNGPSVKQVLIEDEW [c.DDM.K.m] | Neither
52 | MQVTMKSSAVSGQRVMGLFSRFNRRRIRSGLIRIIRTAGREAGLEALRTGIDVIGCRIRGECLTQTAESFRGVSSQFFDAPNGPSVKQVLIEDEW [c.E1S.R.m] | Chloroplast
53 | MQVTMKSSAVSGQRVMGLFSKFNKKKIKSGLIKIIKTAGKEAGLEALRTGIDVIGCKIKGEC [c.E1S.K] | Neither
54 | MALWKTMLKKLGTMALHAGKAAFGAAADTISQLTQTAESFRGVSSQFFDAPNGPSVKQVLIEDEW [DDM.K.m] | Neither
